Source: patent US12466856B2, “Echinocandin analogues and preparation method therefor” (SHANGHAI SENHUI MEDICINE CO., LTD., priority 2019, dated 2025)
Where two headings read alike, the source gives them in different places.

Legend:
Type in all cases: cell-based
[1] = tested on: Candida albicans ATCC 90028; test: MIC assay (CLSI M27-A3), Candida albicans ATCC 90028; conditions: Candida albicans, ATCC90028, second batch
Procedure: (§1) After a test compound was serially diluted, an MIC (minimum inhibitory concentration) assay was performed on the standard Candida strain and an MEC (minimum effective concentration) assay on the standard Aspergillus strain. The MIC assay was performed according to the guidelines of the Clinical and Laboratory Standards Institute (CLSI M27-A3) and the MEC assay according to the guidelines of the Clinical and Laboratory Standards Institute (CLSI M38-A2).
(§2) The frozen strain was passaged at least twice, and a single colony was picked and resuspended in normal saline or sterile water in a tube. The suspension was vortexed and adjusted to 0.5 McF (1×10^6 to 5×10^6 CFU/mL) using a spectrophotometer at wavelength 530 nm. The suspension was 50-fold diluted with normal saline and then 20-fold diluted with 1×RPMI 1640 broth (1×10^3 to 5×10^3 CFU/mL). 10 μL of the suspension was applied to an SDA plate for colony counting, with a range from about 10 to 50 single colonies.
At this time, the bacterium concentration in each well should be 0.5×10^3 to 2.5×10^3 CFU/mL. […]
(§3) Yeast-type fungi: A disposable sealing film was applied to the 96-well plate, and the mixture was well mixed by shaking. Observation was performed through a plate reader with the naked eye. Comparisons were made to the growth control, and the minimum compound concentration corresponding to ≥50% growth inhibition was defined as MIC. Pictures were taken and saved using an automatic plate reader.

[2] = tested on: Candida albicans ATCC 44858; test: MIC assay (CLSI M27-A3), Candida albicans ATCC 44858; conditions: Candida albicans
Procedure: as §1, §2
(§4) At this time, the bacterium concentration in each well should be 0.5×10^3 to 2.5×10^3 CFU/mL.
(§5) For echinocandin drugs, Aspergillus was incubated at 28° C. for 21-26 h, and then the MEC results were read.
as §3

[3] = tested on: Candida glabrata ATCC 36583; test: MIC assay (CLSI M27-A3), Candida glabrata ATCC 36583; conditions: Nakaseomyces glabratus, ATCC36583; second batch; read-out: MIC, Candida glabrata ATCC 36583
Procedure: as §1, §2, §4, §5, §3

[4] = tested on: Candida albicans (azole drug-resistant strain) R357; test: MIC assay (CLSI M27-A3), Candida albicans azole drug-resistant strain R357; conditions: Candida albicans; second batch; read-out: MIC, Candida albicans (azole drug-resistant strain) R357
Procedure: as §1, §2, §4, §5, §3

[5] = tested on: Candida albicans (azole drug-resistant strain) R358; test: MIC assay (CLSI M27-A3), Candida albicans azole drug-resistant strain R358; conditions: Candida albicans; second batch; read-out: MIC, Candida albicans (azole drug-resistant strain) R358
Procedure: as §1, §2, §4, §5, §3

[6] = tested on: Candida tropicalis (amphotericin-resistant strain) ATCC 200956; test: microbe, parasite or virus in culture; conditions: Candida tropicalis, ATCC200956, read-out: MIC, Candida tropicalis (amphotericin-resistant strain) ATCC 200956
Procedure: as §1, §2, §4, §5, §3

[7] = 24 h, 35° C., read-out: MIC, Candida albicans ATCC 90028
[8] = + 50% human serum, read-out: MIC, Candida albicans + 50% human serum ATCC 90028
[9] = ATCC44858, second batch, read-out: MIC, Candida albicans ATCC 44858

Row | Compound | MIC [1, 7] | MIC [1, 8] | MIC [2, 9] | MIC [3] | MIC [4] | MIC [5] | MIC [6] | MIC ([2]; ATCC44858, read-out: MIC, Candida albicans ATCC 44858)
1 | CCCCCOc1ccc(-c2ccc(-c3ccc(C(=O)N[C@H]4C[C@@H](O)[C@@H](OC[C@H](C)[N+](C)(C)C)NC(=O)[C@@H]5[C@@H](O)[C@@H](C)CN5C(=O)[C@H]([C@@H](C)O)NC(=O)[C@H]([C@H](O)[C@@H](O)c5ccc(O)cc5)NC(=O)[C@@H]5C[C@@H](O)CN5C(=O)[C@H]([C@@H](C)O)NC4=O)cc3)cc2)cc1 [Example 22] | 0.25 µg/mL | 0.25 µg/mL | 0.25 µg/mL | 0.5 µg/mL | 0.5 µg/mL | 0.25 µg/mL | 0.25 µg/mL | –
2 | CCCCCOc1ccc(-c2ccc(-c3ccc(C(=O)N[C@H]4C[C@@H](O)[C@@H](OC[C@@H](C)[N+](C)(C)C)NC(=O)[C@@H]5[C@@H](O)[C@@H](C)CN5C(=O)[C@H]([C@@H](C)O)NC(=O)[C@H]([C@H](O)[C@@H](O)c5ccc(O)cc5)NC(=O)[C@@H]5C[C@@H](O)CN5C(=O)[C@H]([C@@H](C)O)NC4=O)cc3)cc2)cc1 [Example 23] | 0.25 µg/mL | 0.25 µg/mL | 0.25 µg/mL | 0.25 µg/mL | 0.25 µg/mL | 0.125 µg/mL | 0.25 µg/mL | –
3 | CCCCCOc1ccc(-c2ccc(-c3ccc(C(=O)N[C@H]4C[C@@H](O)[C@@H](O[C@@H](C)C[N+](C)(C)C)NC(=O)[C@@H]5[C@@H](O)[C@@H](C)CN5C(=O)[C@H]([C@@H](C)O)NC(=O)[C@H]([C@H](O)[C@@H](O)c5ccc(O)cc5)NC(=O)[C@@H]5C[C@@H](O)CN5C(=O)[C@H]([C@@H](C)O)NC4=O)cc3)cc2)cc1 [Example 24] | 0.25 µg/mL | 0.25 µg/mL | – | 0.25 µg/mL | 0.5 µg/mL | 0.0625 µg/mL | 0.125 µg/mL | 0.125 µg/mL
4 | CCCCCOc1ccc(-c2ccc(-c3ccc(C(=O)N[C@H]4C[C@@H](O)[C@@H](O[C@@H]5CC[N+](C)(C)C5)NC(=O)[C@@H]5[C@@H](O)[C@@H](C)CN5C(=O)[C@H]([C@@H](C)O)NC(=O)[C@H]([C@H](O)[C@@H](O)c5ccc(O)cc5)NC(=O)[C@@H]5C[C@@H](O)CN5C(=O)[C@H]([C@@H](C)O)NC4=O)cc3)cc2)cc1 [Example 25] | 0.25 µg/mL | 0.125 µg/mL | 0.125 µg/mL | 0.25 µg/mL | 0.25 µg/mL | 0.25 µg/mL | 0.25 µg/mL | –
5 | CCCCCOc1ccc(-c2ccc(-c3ccc(C(=O)N[C@H]4C[C@@H](O)[C@@H](O[C@H]5CC[N+](C)(C)C5)NC(=O)[C@@H]5[C@@H](O)[C@@H](C)CN5C(=O)[C@H]([C@@H](C)O)NC(=O)[C@H]([C@H](O)[C@@H](O)c5ccc(O)cc5)NC(=O)[C@@H]5C[C@@H](O)CN5C(=O)[C@H]([C@@H](C)O)NC4=O)cc3)cc2)cc1 [Example 26] | 0.25 µg/mL | 0.25 µg/mL | 0.25 µg/mL | 0.25 µg/mL | 0.5 µg/mL | 0.25 µg/mL | 0.25 µg/mL | –
